Assay results from patent US20100168102A9, “Amide Derivatives as Kinase Inhibitors” (Devgen NV, priority 2005, published 2010).
Like-named read-outs stand apart in the source and are kept apart here.

Legend:
PKC epsilon = molecular target: T1, PKC epsilon (Homo sapiens, UniProt Q02156); assay: Biochemical assay for PKC epsilon (fluorescence polarization, Protein Kinase C Assay Kit, Red); details: read-out: IC50 μM PKCε
T1 construct: purchased Invitrogen P2282
T1 sequence (Q02156 1-737): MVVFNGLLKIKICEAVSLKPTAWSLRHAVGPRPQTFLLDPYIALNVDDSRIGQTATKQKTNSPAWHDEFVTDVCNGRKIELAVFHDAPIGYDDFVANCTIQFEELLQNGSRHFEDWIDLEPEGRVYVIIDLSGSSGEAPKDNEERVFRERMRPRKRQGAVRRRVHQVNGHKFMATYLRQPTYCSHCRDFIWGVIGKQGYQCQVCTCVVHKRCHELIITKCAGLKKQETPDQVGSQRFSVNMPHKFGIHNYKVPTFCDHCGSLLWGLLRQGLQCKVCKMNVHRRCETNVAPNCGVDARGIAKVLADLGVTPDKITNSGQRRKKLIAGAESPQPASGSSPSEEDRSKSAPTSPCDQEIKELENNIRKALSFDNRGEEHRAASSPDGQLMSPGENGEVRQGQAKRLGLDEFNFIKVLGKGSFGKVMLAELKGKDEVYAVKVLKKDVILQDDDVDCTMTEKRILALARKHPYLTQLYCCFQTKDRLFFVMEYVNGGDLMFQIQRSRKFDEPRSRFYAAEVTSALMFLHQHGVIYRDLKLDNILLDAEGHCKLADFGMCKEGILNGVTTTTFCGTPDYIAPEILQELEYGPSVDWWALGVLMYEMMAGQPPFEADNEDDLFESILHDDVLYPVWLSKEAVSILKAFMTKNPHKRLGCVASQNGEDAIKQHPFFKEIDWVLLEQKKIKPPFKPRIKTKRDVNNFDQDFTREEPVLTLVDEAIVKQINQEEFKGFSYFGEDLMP
Method in brief: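 PKC epsilon at 10 ng/ml final was preincubated 30 min at room temperature with compound in HEPES pH 7.4 with DTT and Triton X-100. ATP/protein substrate was then added in buffer with MgCl2 and CaCl2 for 80 min. The reaction was stopped with EDTA, phosphorylation was detected by fluorescence polarization with rhodamine tracer and anti-phosphoserine antibody, and IC50 values came from curve fits.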

human ROCKα/ROCKII mix = molecular target: T2, human ROCKα/ROCKII mix (Homo sapiens, UniProt O75116); assay: Biochemical assay for ROCK (fluorescence polarization, ROCK IMAP Kit)
T2 construct: purchased Upstate Biotechnology 14-451

[1] = compounds of Formula XIV, Table 3
[2] = Table 2, compounds of Formula XIII

T2 sequence (O75116 11-552 limits assumed): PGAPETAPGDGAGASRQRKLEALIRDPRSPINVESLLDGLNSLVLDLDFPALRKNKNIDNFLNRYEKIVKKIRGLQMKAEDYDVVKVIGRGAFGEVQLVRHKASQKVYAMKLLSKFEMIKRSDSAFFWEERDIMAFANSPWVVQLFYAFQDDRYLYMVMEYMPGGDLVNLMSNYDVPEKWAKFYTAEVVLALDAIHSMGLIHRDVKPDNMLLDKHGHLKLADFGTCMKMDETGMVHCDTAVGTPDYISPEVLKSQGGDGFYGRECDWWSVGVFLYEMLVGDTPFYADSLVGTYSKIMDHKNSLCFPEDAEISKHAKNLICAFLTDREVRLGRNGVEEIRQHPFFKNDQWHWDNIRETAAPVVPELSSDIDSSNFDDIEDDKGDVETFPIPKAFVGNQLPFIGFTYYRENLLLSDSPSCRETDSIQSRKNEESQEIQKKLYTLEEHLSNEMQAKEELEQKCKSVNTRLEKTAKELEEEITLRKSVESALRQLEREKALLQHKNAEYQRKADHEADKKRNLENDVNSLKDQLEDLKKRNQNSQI

Row | Compound | IC50 (PKC epsilon) [µM] | IC50 (human ROCKα/ROCKII mix) [µM] | IC50 (PKC epsilon; [1]) [µM] | IC50 (human ROCKα/ROCKII mix; [1]) [µM] | IC50 (PKC epsilon; [2]) [µM] | IC50 (human ROCKα/ROCKII mix; [2]) [µM]
1 | Cc1ccccc1NC(=O)NCC(N)c1ccc(C(=O)Nc2ccncc2)cc1 (centres unmarked) [Compound 25, 4-[1-amino-2-(3-o-tolyl-ureido)-ethyl]-N-pyridin-4-yl-benzamide] | 0.5 to 5 | 0.05 to 0.5 |  |  |  | 
2 | 4-{1-Amino-2-[ethyl-(4-nitro- benzyl}-carbamoyl]-ethyl)-N- pyridin-4-yl-benzamide [Compound 274] |  |  | 0.5 to 5 | 0.05 to 0.5 |  | 
3 | 4-[1-Amino-2-(2-ethoxy- benzylcarbamoyl)-ethyl]- N-pyridin-4-yl-benzamide [Compound 237] |  |  | 0.5 to 5 | 0.05 to 0.5 |  | 
4 | 4-{1-Amino-2-[(2- benzo[b]thiophen-3-yl- acetyl)-methyl- amino]-ethyl}- N-pyridin-4-yl-benzamide [Compound 444] | 5 to 50 | 0.5 to 5 |  |  |  | 
5 | NC(CNC(=O)Cc1csc(Nc2ccccc2)n1)c1ccc(C(=O)Nc2ccncc2)cc1 (centres unmarked) [Compound 155, 4-{1-Amino-2-[2-(2-phenylamino-thiazol-4-yl)-acetylamino]-ethyl}-N-pyridin-4-yl-benzamide] |  |  |  |  | 0.5 to 5 | 0.5 to 5
6 | CN(CC(N)c1ccc(C(=O)Nc2ccncc2)cc1)C(=O)C1CCOc2ccc(Cl)cc21 (centres unmarked) [Compound 515, 6-Chloro-chroman-4-carboxylic acid {2-amino-2-[4-(pyridin-4-ylcarbamoyl)-phenyl]-ethyl}-methyl-amide] | 5 to 50 | 0.5 to 5 |  |  |  | 
7 | Cc1ccc(CC(=O)N2CCCC2C(N)c2ccc(C(=O)Nc3ccncc3)cc2)cc1 (centres unmarked) [Compound 525, 4-{Amino-[1-(2-p-tolyl-acetyl)-pyrrolidin-2-yl]-methyl}-N-pyridin-4-yl-benzamide] | 0.5 to 5 | 0.5 to 5 |  |  |  | 
8 | NC(CNC(=O)c1ccc(=O)[nH]n1)c1ccc(C(=O)Nc2ccncc2)cc1 (centres unmarked) [Compound 109, 6-Oxo-1,6-dihydro-pyridazine-3-carboxylic acid {2-amino-2-[4-(pyridin-4-ylcarbamoyl)-phenyl]-ethyl}-amide] |  |  |  |  | 5 to 50 | 0.5 to 5
9 | Cc1ccccc1CNC(=O)CC(N)c1ccc(C(=O)Nc2ccncc2)cc1 (centres unmarked) [Compound 231, 4-[1-Amino-2-(2-methyl-benzylcarbamoyl)-ethyl]-N-pyridin-4-yl-benzamide] |  |  | 0.5 to 5 | 0.05 to 0.5 |  | 
10 | CC(C)CCC(=O)NCC(N)c1ccc(C(=O)Nc2ccncc2)cc1 (centres unmarked) [Compound 36, 4-[1-Amino-2-(4-methyl-pentanoylamino)-ethyl]-N-pyridin-4-yl-benzamide] |  |  |  |  | 0.5 to 5 | 0.5 to 5
11 | 4-[1-Amino-2-(1-(R)-p-tolyl- propylcarbamoyl)-ethyl]-N- pyridin-4-yl-benzamide [Compound 220] |  |  | 0.5 to 5 | 0.05 to 0.5 |  | 
12 | NC(CNC(=O)NCc1ccccc1)c1ccc(C(=O)Nc2ccncc2)cc1 (centres unmarked) [Compound 7, 4-[1-amino-2-(3-benzyl-ureido)-ethyl]-N-pyridin-4-yl-benzamide] | 0.5 to 5 | 0.05 to 0.5 |  |  |  | 
13 | NC(CNC(=O)CCc1ccc(F)cc1)c1ccc(C(=O)Nc2ccncc2)cc1 (centres unmarked) [Compound 163, 4-{1-amino-2-[3-(4-fluoro-phenyl)-propionylamino]-ethyl}-N-pyridin-4-yl-benzamide] |  |  |  |  | 0.05 to 0.5 | 0.05 to 0.5
14 | COc1cccc(C(=O)NCC(N)c2ccc(C(=O)Nc3ccncc3)cc2)c1 (centres unmarked) [Compound 73, 4-[1-amino-2-(3-methoxy-benzoylamino)-ethyl]-N-pyridin-4-yl-benzamide] |  |  |  |  | 0.5 to 5 | 0.5 to 5
15 | Cc1cccc(CC(=O)N2CCCC2C(N)c2ccc(C(=O)Nc3ccncc3)cc2)c1 (centres unmarked) [Compound 524, 4-{Amino-[1-(2-m-tolyl-acetyl)-pyrrolidin-2-yl]-methyl}-N-pyridin-4-yl-benzamide] | 5 to 50 | 0.5 to 5 |  |  |  | 
16 | Cc1ccc2[nH]cc(CCNC(=O)CC(N)c3ccc(C(=O)Nc4ccncc4)cc3)c2c1 (centres unmarked) [Compound 314, 4-{1-Amino-2-[2-(5-methyl-1H-indol-3-yl)-ethylcarbamoyl]-ethyl}-N-pyridin-4-yl-benzamide] |  |  | 0.5 to 5 | 0.05 to 0.5 |  | 
